{"source": "patent US20150126464A1", "about": "“THERAPEUTIC DRUG AND THERAPEUTIC METHOD FOR NEUROLOGICAL DISEASES INCLUDING ALZHEIMER'S DISEASE ASSOCIATED WITH 1,25D3-MARRS” (priority 2013, published 2015)", "key": {"normal mice [1]": {"system": "normal mice", "test": "Novel object recognition test in normal mice", "assay_type": "in vivo, mouse", "experimental": "Diosgenin (Wako Pure Chemical Industries, Ltd., Osaka, Japan) was dissolved in ethanol at 10 times the final concentration to give a stock solution, and the stock solution was diluted in a 5% aqueous solution of glucose to the final concentration. The diosgenin solution was intraperitoneally administered to normal mice (ddY mice, male, 6 weeks old) once a day (10 μmol/kg/day) for 5 or 6 days. One hour after the last administration, each mouse was housed in a separate open-field box made of polyvinyl chloride (33 cm×28 cm; height: 26.5 cm), habituated to the environment for 10 minutes, and used in the test.\nUsing the mice of Example 8 and Comparative Example 11, a novel object recognition test was performed to evaluate the object recognition memory. Testing was carried out in a dimly illuminated room (100 lux). The test was performed as described in Joyashiki, E. et sl., Int J Neurosci, 121, 181-190, 2011 and Tohda, C. et al., Int J Neurosci, 121, 641-648, 2011, written by the inventors and others, except that the time interval between a training session and a test session was 48 hours. As a locomotion index, the path of each mouse was tracked using a digital camera system. The distance each mouse traveled during the 10 minutes was analyzed as locomotion activity with EthoVision 3.0 (Noldus, Wageningen, The Netherlands).\nThe diosgenin solution was intraperitoneally administered to normal mice (C57BL/6, male, 8 weeks old) (100 μmol/kg/day) for 14 days. On the day after the 14th administration, the mice were used in the test.\nUsing the mice of Example 9 and Comparative Example 12, the novel object recognition test was performed. The test was performed under the conditions as described above.\nDioscin in an amount of 30 μmol/kg/day was orally administered to normal mice (ddY mice, male, 6 weeks old) for 4 days. Dioscin (Chromadex, Irvine, Calif., USA) was dissolved in ethanol at 10 times the final concentration to give a stock solution, and the stock solution was diluted in a 5% aqueous solution of glucose to the final concentration. […]"}, "normal mice [2]": {"system": "normal mice", "test": "Object recognition memory under continuous administration of 1,25D3-MARRS neutralizing antibody", "assay_type": "in vivo, mouse", "details": "normal ddY mice, diosgenin i.p.", "experimental": "To neutralize the 1,25D3-MARRS function of normal mice (ddY mice, male, 6 weeks old), a polyclonal antibody specific to 1,25D3-MARRS, i.e., Ab099 clone, was intraventricularly administered in a continuous manner. Ab099 diluted in ACSF (artificial cerebrospinal fluid) was charged into a micro osmotic pump (model: 1007D, Alzet, Cupertino, Calif., USA) and a brain infusion kit 3 (Alzet). The dilution rate of Ab099 was determined depending on the cerebrospinal fluid (CSF) volume and the inflow velocity so that the concentration would be sufficient for Ab099 to act as a neutralizing antibody in CSF. Using stereotaxic apparatus, a brain infusion cannula (brain infusion kit) was inserted into the right ventricle of each mouse anesthetized beforehand (anterior/posterior: −0.22 mm posterior from bregma, medial/lateral: +1.0 mm, dorsal/ventral: −2.5 mm below surface). The entire cannula insertion site was covered with Loctite 454 (Alzet). The pump was subcutaneously implanted in the back of the mouse. The incision in the skin was sutured.\nAfter the start of continuous antibody administration, the intraperitoneal administration of diosgenin was initiated. After 5-day administration of diosgenin, the object recognition memory training was initiated. The next day, the last administration of diosgenin was performed. The test session was initiated 48 hours after the start of the training session. […]"}, "[3]": {"system": "spinal cord injury (SCI) mice", "test": "Hindlimb motor function of spinal cord injury (SCI) mice (BMS, TMS)", "assay_type": "in vivo, mouse", "details": "diosgenin 10 μmol/kg i.p. once a day for 7 days, vs vehicle", "experimental": "In the spinal cord injury model test, 7-week-old female ddY mice (SLC) were used. The mice were maintained with free access to food and water in a controlled environment (22±2° C., 50±5% humidity, 12-h light/dark cycle starting at 7:00 am). A contusion was created by dropping a 3.0 g weight once onto an exposed first lumbar vertebrae (L1) of each mouse from a height of 3 cm using stereotaxic apparatus (made by Narishige). One hour after surgery, the mice were randomly divided into a vehicle solution-treated group and a diosgenin-treated group, and then drug administration was initiated.\nDiosgenin (10 μmol/kg) was intraperitoneally administered to SCI mice once a day for 7 days.\nOne hour after the last administration in Example 13 and Comparative Example 17, each mouse was moved to an open field (23.5 cm×16.5 cm×12.5 cm) and observed for behavior evaluation for 5 minutes. The locomotion behavior in the open field was evaluated using the Basso Mouse Scale (BMS), which is a general standard for evaluation of the hindlimb function of SCI model mice (FIG. 14A), and a 0-18-point Toyama Mouse Scale (TMS), which is a modified BMS devised by the inventors for better test accuracy, (FIG. 14B).\nThe new Toyama Mouse Scale (TMS), which is a modified BMS devised by the inventors for better test accuracy, was used in the hindlimb function of SCI mice."}, "[4]": {"system": "rat cortical neurons (SD E18)", "test": "Measurement of axon density in cortical neurons with or without 1,25D3-MARRS knockdown", "details": "1 μM, 4 days, vs vehicle", "description": "siRNAs were transfected into rat cortical neurons (SD E18) according to the manufacturer's protocol for nucleofection (Lonza, Bazel, Switzerland). […] Two days after the transfection, the cells were fixed and double-immunostained with a monoclonal antibody against a neuron marker MAP2a/2b (1:500, NeoMarker, Fremont, Calif., USA) and Ab099 clone, a specific antibody for 1,25D3-MARRS (1:500, provided by Dr. Nemere).\nTwelve to fourteen images were captured. The lengths of the pNF-H-positive axons were measured using an image analyzer Neurocyte (Kurabo), which automatically traces and measures neurite length without measuring the cell bodies. The sum of the axon lengths was divided by the number of MAP2-positive neurons.\n1,25D3-MARRS was knocked down using siRNA transfection. […] Two days after the siRNA transfection, denosomin (1 μM) or a vehicle solution was applied to the cells. Further, after 4-day incubation, the cells were double-immunostained for pNF-H and MAP2 to measure the axonal length per neuron."}}}
{"smiles": "C[C@@H]1CC[C@@]2(OC1)O[C@H]1C[C@H]3[C@@H]4CC=C5C[C@@H](O)CC[C@]5(C)[C@H]4CC[C@]3(C)[C@H]1[C@@H]2C", "note": "[diosgenin]", "values": [{"measurement": "object recognition memory", "setting": "normal mice [1]; normal C57BL/6 mice, diosgenin 100 μmol/kg/day i.p. 14 days", "value": "significantly improved"}, {"measurement": "behavior index of exploratory behavior for the novel object", "setting": "normal mice [1]; normal ddY mice, diosgenin 10 μmol/kg/day i.p. 5 or 6 days, 48 hours training-test interval", "value": "higher than 50%"}, {"measurement": "preferential index, mice treated with ACSF and diosgenin", "setting": "normal mice [2]; ACSF intraventricular, test 48 hours after training", "value": "significantly improved"}, {"measurement": "memory improvement attributable to diosgenin in mice given 1,25D3-MARRS neutralizing antibody", "setting": "normal mice [2]; Ab099 clone intraventricular continuous", "value": "completely offset"}, {"measurement": "hindlimb motor function (BMS and TMS)", "setting": "[3]", "value": "improved hindlimb motor function"}, {"measurement": "density of pNF-H-positive axons per MAP2-positive neuron, control groups", "setting": "[4]; control (no 1,25D3-MARRS knockdown) cortical neurons", "value": "significantly increased"}, {"measurement": "density of pNF-H-positive axons per MAP2-positive neuron, 1,25D3-MARRS knockdown groups", "setting": "[4]; neurons transfected with siRNA for 1,25D3-MARRS (400 nM)", "value": "did not show any difference"}]}
